Experimental data reported in patent publication US20210070748A1, “INHIBITORS OF BRUTONS TYROSINE KINASE” (Pharmacyclics LLC, priority 2015, published 2021).

What was measured:
Assay type in all cases: biochemical
[1] = target: T1, TEC (Homo sapiens, UniProt P42680); assay: Inhibition of a panel of kinases, in vitro HotSpot kinase assay: TEC; conditions: E compounds, Table 17
T1 sequence (P42680 1-631): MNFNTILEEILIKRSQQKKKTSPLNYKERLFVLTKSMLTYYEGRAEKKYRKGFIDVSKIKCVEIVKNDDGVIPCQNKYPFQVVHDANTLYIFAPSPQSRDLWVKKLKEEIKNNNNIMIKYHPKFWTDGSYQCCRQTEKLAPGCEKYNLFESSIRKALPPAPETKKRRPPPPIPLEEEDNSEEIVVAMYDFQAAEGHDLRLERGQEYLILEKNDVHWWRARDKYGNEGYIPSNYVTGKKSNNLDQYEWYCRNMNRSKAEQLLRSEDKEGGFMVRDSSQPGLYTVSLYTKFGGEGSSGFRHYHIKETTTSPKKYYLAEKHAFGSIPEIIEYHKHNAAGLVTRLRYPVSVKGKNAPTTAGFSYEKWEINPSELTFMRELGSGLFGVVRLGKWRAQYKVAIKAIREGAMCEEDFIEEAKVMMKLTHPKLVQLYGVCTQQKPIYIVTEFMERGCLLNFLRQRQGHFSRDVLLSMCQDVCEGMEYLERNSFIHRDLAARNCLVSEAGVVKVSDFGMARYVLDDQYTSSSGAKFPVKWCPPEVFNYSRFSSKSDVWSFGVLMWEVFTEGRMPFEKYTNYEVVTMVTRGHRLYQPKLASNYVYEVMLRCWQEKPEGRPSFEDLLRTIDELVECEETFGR
Procedure: (§1) The degree of inhibition of a panel of kinases is determined using the in vitro HotSpot kinase assay (purified enzymes, ^33P-ATP, an appropriate substrate and 1 μM ATP).

[2] = target: T2, ITK (Homo sapiens, UniProt Q08881); assay: Inhibition of a panel of kinases, in vitro HotSpot kinase assay: ITK; conditions: E compounds, Table 17
T2 sequence (Q08881 1-620): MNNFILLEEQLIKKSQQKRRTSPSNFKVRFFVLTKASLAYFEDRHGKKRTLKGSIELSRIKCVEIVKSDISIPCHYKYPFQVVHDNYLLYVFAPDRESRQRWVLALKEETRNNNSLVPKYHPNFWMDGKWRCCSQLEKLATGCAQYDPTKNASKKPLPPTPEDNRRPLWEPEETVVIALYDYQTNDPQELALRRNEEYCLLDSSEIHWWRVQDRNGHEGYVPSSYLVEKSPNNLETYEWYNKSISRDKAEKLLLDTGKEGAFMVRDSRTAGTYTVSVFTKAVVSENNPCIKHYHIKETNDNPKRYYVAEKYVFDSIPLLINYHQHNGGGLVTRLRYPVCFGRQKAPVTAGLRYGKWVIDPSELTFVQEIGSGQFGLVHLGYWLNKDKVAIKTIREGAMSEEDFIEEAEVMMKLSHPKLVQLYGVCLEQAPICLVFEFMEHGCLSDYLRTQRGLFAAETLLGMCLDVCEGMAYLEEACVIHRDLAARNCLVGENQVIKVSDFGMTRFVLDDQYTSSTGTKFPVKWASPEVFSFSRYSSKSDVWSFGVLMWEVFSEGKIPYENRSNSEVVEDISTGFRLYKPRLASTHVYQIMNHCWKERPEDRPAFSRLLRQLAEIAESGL
Procedure: as §1

[3] = target: T3, BTK-WT (Homo sapiens, UniProt Q06187); assay: Btk in vitro inhibitory activity (one of Method A TR-FRET, Method B electrophoretic mobility shift, Method C radiometric filter binding); conditions: E compounds, Table 17; read-out: IC50 BTK-WT
T3 construct: purified from insect cells as a full-length construct containing an N-terminal 6X-His tag; His6 (N); made in house; host or cells: insect cells (baculovirus Sf21 in Method B)
T3 sequence (Q06187 whole entry): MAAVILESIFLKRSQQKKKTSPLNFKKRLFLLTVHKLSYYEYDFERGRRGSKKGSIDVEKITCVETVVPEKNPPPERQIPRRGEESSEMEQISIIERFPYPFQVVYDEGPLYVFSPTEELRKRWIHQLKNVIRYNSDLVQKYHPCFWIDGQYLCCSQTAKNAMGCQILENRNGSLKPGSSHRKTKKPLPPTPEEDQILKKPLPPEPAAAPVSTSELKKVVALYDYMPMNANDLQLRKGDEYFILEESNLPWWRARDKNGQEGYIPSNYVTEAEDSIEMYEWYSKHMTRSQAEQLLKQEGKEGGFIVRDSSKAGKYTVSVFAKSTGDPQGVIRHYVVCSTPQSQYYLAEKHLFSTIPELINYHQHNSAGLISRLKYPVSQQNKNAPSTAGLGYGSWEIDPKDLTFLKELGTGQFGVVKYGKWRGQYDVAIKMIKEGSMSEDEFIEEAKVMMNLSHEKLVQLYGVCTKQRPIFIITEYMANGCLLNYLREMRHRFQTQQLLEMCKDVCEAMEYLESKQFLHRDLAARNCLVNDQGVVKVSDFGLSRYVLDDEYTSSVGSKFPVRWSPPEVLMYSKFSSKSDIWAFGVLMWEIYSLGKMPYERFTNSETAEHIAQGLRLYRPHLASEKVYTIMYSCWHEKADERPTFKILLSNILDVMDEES

SMILES	IC50 [1]	IC50 [2]	IC50 [3]
C=CC(=O)N1CCC[C@@H](Nc2nnc(C(N)=O)c(Nc3ccc(C4=NCCN4C)cc3)n2)C1 [Example E-80, (R)-3-(1-acryloylpiperidin-3-ylamino)-5-(4-(1-methyl-4,5-dihydro-1H-imidazol-2-yl)phenylamino)-1,2,4-triazine-6-carboxamide]	≤ 0.01 µM	≤ 0.01 µM	≤ 0.01 µM
C=CC(=O)N1CCC[C@@H](Nc2nnc(C(N)=O)c(Nc3cccc(C(=O)OCC)c3)n2)C1 [Example E-81, (R)-ethyl 3-(3-(1-acryloylpiperidin-3-ylamino)-6-carbamoyl-1,2,4-triazin-5-ylamino)benzoate]	≤ 0.01 µM	0.1 to 1 µM	≤ 0.01 µM
C=CC(=O)N1CCC[C@@H](Nc2nnc(C(N)=O)c(Nc3cccc(C(=O)NC)c3)n2)C1 [Example E-82, (R)-3-(1-acryloylpiperidin-3-ylamino)-5-(3-(methylcarbamoyl)phenylamino)-1,2,4-triazine-6-carboxamide]	≤ 0.01 µM	0.01 to 0.1 µM	≤ 0.01 µM
C=CC(=O)N1CCC[C@@H](Nc2nnc(C(N)=O)c(Nc3cccc(C(=O)N(C)C)c3)n2)C1 [Example E-83, (R)-3-(1-acryloylpiperidin-3-ylamino)-5-(3-(dimethylcarbamoyl)phenylamino)-1,2,4-triazine-6-carboxamide]	≤ 0.01 µM	0.01 to 0.1 µM	≤ 0.01 µM
C=CC(=O)N1CCC[C@@H](Nc2nnc(C(N)=O)c(Nc3cccc(C(=O)NC4CC4)c3)n2)C1 [Example E-84, (R)-3-(1-acryloylpiperidin-3-ylamino)-5-(3-(cyclopropyl-carbamoyl)phenyl-amino)-1,2,4-triazine-6-carboxamide]	≤ 0.01 µM	0.01 to 0.1 µM	≤ 0.01 µM
C=CC(=O)N1CCC[C@@H](Nc2nnc(C(N)=O)c(Nc3cccc(C(=O)N4CCOCC4)c3)n2)C1 [Example E-85, (R)-3-(1-acryloylpiperidin-3-ylamino)-5-(3-(morpholine-4-carbonyl)phenylamino)-1,2,4-triazine-6-carboxamide]	≤ 0.01 µM	0.01 to 0.1 µM	≤ 0.01 µM
C=CC(=O)N1CCC[C@@H](Nc2nnc(C(N)=O)c(Nc3cccc(C(=O)NCc4ccccc4)c3)n2)C1 [Example E-86, (R)-3-(1-acryloylpiperidin-3-ylamino)-5-(3-(benzyl-carbamoyl)phenyl-amino)-1,2,4-triazine-6-carboxamide]	≤ 0.01 µM	0.01 to 0.1 µM	≤ 0.01 µM
C=CC(=O)N1CCC[C@@H](Nc2nnc(C(N)=O)c(Nc3cccc(C(=O)N4CCCCC4)c3)n2)C1 [Example E-87, (R)-3-(1-acryloylpiperidin-3-ylamino)-5-(3-(piperidine-1-carbonyl)phenylamino)-1,2,4-triazine-6-carboxamide]	≤ 0.01 µM	0.1 to 1 µM	≤ 0.01 µM
C=CC(=O)NC[C@H]1CCCCN1c1nnc(C(N)=O)c(Nc2ccc(C(C)C)cc2)n1 [Example E-88, (R)-3-(2-(acrylamido-methyl)piperidin-1-yl)-5-(4-isopropyl-phenylamino)-1,2,4-triazine-6-carboxamide]	0.01 to 0.1 µM	0.1 to 1 µM	≤ 0.01 µM
C=CC(=O)NC[C@@H]1CCCCN1c1nnc(C(N)=O)c(Nc2ccc(C(C)C)cc2)n1 [Example E-89, (S)-3-(2-(acrylamido-methyl)piperidin-1-yl)-5-(4-isopropyl-phenylamino)-1,2,4-triazine-6-carboxamide]	0.1 to 1 µM	1 to 10 µM	0.1 to 1 µM
C=CC(=O)NC[C@H]1CCCN1c1nnc(C(N)=O)c(Nc2ccc(C(C)C)cc2)n1 [Example E-90, (R)-3-(2-(acrylamido-methyl)pyrrolidin-1-yl)-5-(4-isopropylphenyl-amino)-1,2,4-triazine-6-carboxamide]	≤ 0.01 µM	0.01 to 0.1 µM	≤ 0.01 µM
